Measured values from patent US20090023687A1, “Method for Controlling Phytopathogenic Organisms” (SYNGENTA CROP PROTECTION, INC., priority 2005, published 2009).

How the values were obtained:
Assay type in all cases: in vivo
[1] = system: Puccinia recondita; test: Greenhouse trial with Puccinia recondita on glyphosate sensitive wheat (Example 3); conditions: read-out: % activity observed
Description: (§1) A synergistic effect exists whenever the action of an active ingredient combination is greater than the action expected from the effect of the individual components.
(§2) The action to be expected (E) for a given active ingredient combination obeys the so-called COLBY formula and can be calculated as follows (COLBY, S. R. “Calculating synergistic and antagonistic responses of herbicide combination”. Weeds, Vol. 15, pages 20-22; 1967):
(§3) ppm=milligrams of active ingredient (=a.i.) per litre of spray mixture X=% action by active ingredient I using p ppm of active ingredient Y=% action by active ingredient II using q ppm of active ingredient.
(§4) According to Colby, the expected (additive) action of active ingredients I+II using p+q ppm of active ingredient is
(§5) If the action actually observed (O) is greater than the expected action (E), then the action of the combination is superadditive, i.e. there is a synergistic effect.
Greenhouse tests were conducted to show the effects of tank mixtures of glyphosate and the ortho-substituted phenyl-amide (OPA) fungicides represented by structures F-10, F-5 and F-9 on cereal rust Puccinia recondita. The wheat variety tested was brand Kanzler glyphosate sensitive wheat. Three (3) repetitions for each formulation and at each rate were conducted. Treatment of the plants with the recited active ingredients was conducted preventatively 16 days after planting. The leaves were inoculated with Puccinia recondita one (1) day after treatment. Evaluation of the leaf was conducted […] after inoculation and the mean percent infestation of the three repetitions is reported in Tables 5-7.
The glyphosate source was Zapp® QI herbicide containing the potassium salt of glyphosate as well as an adjuvant system. The compound OPA F-5 used was a compound of formula F-5, wherein the ratio of racemic compounds of formula F-3 (syn) to racemic compounds of formula F-4 (anti) was 9:1. The compound OPA F-9 used was a compound of formula F-9, wherein the ratio of racemic compounds of formula F-7 (trans) to racemic compounds of formula F-8 (cis) was around 100:1. The fungicides used were EC 100 formulations of OPA F-10, OPA F-5 and OPA F-9 which are emulsion concentrates containing 100 ga.i./L. The rates of the active ingredients used in the tests are set in Tables 5-7 as mg active ingredient (a.i.)/L.

[2] = system: Phakopsora pachyrhizi; test: Application on whole plants: leaf disc test with Phakopsora pachyrhizi on glyphosate sensitive soybean (Example 5)
Description: as §1, §2, §3, §4, §5
(§6) A series of leaf disc tests were conducted to show the effects of tank mixtures of glyphosate and pesticides or plant activators on Asian soybean rust. The soybean variety tested was brand Williams82 glyphosate sensitive soybean. The leaf source for the testing was the first trifoliate leaf. Six (6) repetitions for each formulation and at each rate were conducted. Treatment of whole plants with the recited active ingredients was conducted 4 weeks after planting. After application, leaf disks were cut and inoculated with Phakopsora pachyrhizi (Asian soybean rust (ASR)) one (1) day after treatment. Evaluation of the leaf was conducted ten (10) days after inoculation and the mean percent infestation of the six repetitions is reported in Tables 12-14.
As glyphosate source Touchdown® HiTech or Zapp® QI was used. The fungicides were used as commercial formulations: Cantus® WG50 fungicide comprising boscalid (BASF AG), Quadris® SC250 fungicide and Bion® WG50 plant activator comprising acibenzolar-S-methyl. The rates of the active ingredients used in the tests are set in Tables 12-14 as g active ingredient (a.i.)/hectare (ha). The spray volume was 200 l/ha.

[3] = system: Phakopsora pachyrhizi; test: Application on whole plants: leaf disc test with Phakopsora pachyrhizi on glyphosate tolerant soybean (Example 6)
Description: as §1, §2, §3, §4, §5
as §6, with “Leaf” for “A series of leaf”, “S40-R9” for “Williams82”, “tolerant” for “sensitive”, “[…]” for “of whole plants with the recited active ingredients was conducted 4 weeks after planting. After”, “15-17.” for “12-14.”
As glyphosate source Touchdown® HiTech or Zapp® QI was used. The fungicides were used as commercial formulations: Bravo® SC500 fungicide comprising chlorothalonil (Syngenta Corp.), Score® EC250 fungicide comprising difenaconazole (Syngenta Corp.) and Mancozeb 80WP fungicide comprising mancozeb. The rates of the active ingredients used in the tests are set in Tables 15-17 as g active ingredient (a.i.)/hectare (ha). The spray volume was 200 l/ha.

[4] = Glyphosate TD HiTech SL523 200 g a.i./ha
[5] = Glyphosate TD HiTech SL523 500 g a.i./ha
[6] = Glyphosate TD HiTech SL523 600 g a.i./ha
[7] = Glyphosate TD HiTech SL523 500 g a.i./ha, Tables 15, 17 (check 60)
[8] = Glyphosate TD HiTech SL523 1500 g a.i./ha, Table 16 (check 49)
[9] = Glyphosate TD HiTech SL523 1500 g a.i./ha, Tables 15, 17 (check 60)

`O=C(O)CNCP(=O)(O)O` [Glyphosate, glyphosate] was tested, and the inhibition at 66 µg/mL ([1]; Glyphosate 66 mg a.i./L (Zapp QI)) was 0%, the inhibition at 200 µg/mL ([1]; Glyphosate 200 mg a.i./L (Zapp QI)) was 42% and the Activity observed % [2, 4] was 7%. The Leaf attack % [2, 4] was 58%, the Activity observed % [2, 5] was 10% and the Leaf attack % [2, 5] was 56%. For the same molecule, the Activity observed % [2, 6] was 19%, the Leaf attack % [2, 6] was 50% and the Activity observed % [3, 7] was 0%. For the same molecule, the Leaf attack % [3, 7] was 68%, the Activity observed % [3, 8] was 44% and the Leaf attack % [3, 8] was 28%. It also gave an Activity observed % [3, 9] of 17% and a Leaf attack % [3, 9] of 50%.
